Our source for the MIC, kcat/Km and Ki values is ChEMBL document CHEMBL1649315, “Extended-spectrum cephalosporinase in Acinetobacter baumannii” (Antimicrob Agents Chemother, 2010).

Values after ≈ are worked out from the molar mass of the structure shown.

Broadly, the MIC is the lowest concentration found to suppress growth. For orientation: kcat/Km means the turnover number divided by the Michaelis constant. As usually defined, the Ki is the dissociation constant of the complex between target and ligand, obtained from inhibition or displacement.

Assay [1] deals with Escherichia coli. The experiment in a line: Antimicrobial activity against Escherichia coli TOP10 harboring pADC-11 plasmid carrying entire blaAmpC gene with alanine residue insertion at 215 position by Etest method. The assay is classed as functional.
The test system of assay [2] is Escherichia coli. The assay can be described thus: Antimicrobial activity against Escherichia coli TOP10 harboring pADC-33 plasmid with entire blaAmpC gene by Etest method. The assay is classed as functional.
The test system of assay [3] is Escherichia coli. The experiment in a line: Antimicrobial activity against Escherichia coli TOP10 harboring pADC-50 plasmid by Etest method. The assay is classed as functional.
Assay [4] deals with Escherichia coli. The assay can be described thus: Antimicrobial activity against Escherichia coli TOP10 harboring pADC-11 plasmid with entire blaAmpC gene by Etest method. The assay is classed as functional.
Assay [5] has as its system Escherichia coli. The assay can be described thus: Antimicrobial activity against Escherichia coli TOP10 harboring pADC-33 plasmid with entire blaAmpC gene with alanine residue deletion at 215 position by Etest method. The assay is classed as functional.
Assay [6] has as its system Escherichia coli. The assay can be described thus: Antimicrobial activity against Escherichia coli TOP10 harboring pADC-11 plasmid carrying entire blaAmpC gene with alanine residue insertion at 215 position and R210P substitution by Etest method. The assay is classed as functional.
Assay [7] concerns Acinetobacter baumannii. The assay can be described thus: Antimicrobial activity against Acinetobacter baumannii AYE expressing VEB-1 gene by Etest method. The assay is classed as functional.
Assay [8] concerns Acinetobacter baumannii. The assay can be described thus: Antimicrobial activity against Acinetobacter baumannii CIP70.10 by Etest method. The assay is classed as functional.
Assay [9] deals with Escherichia coli. The assay can be described thus: Antimicrobial activity against Escherichia coli TOP10 harboring pADC-33 plasmid by Etest method. The assay is classed as functional.
The subject of assay [10] is Escherichia coli. The experiment in a line: Antimicrobial activity against Escherichia coli TOP10 harboring pTOPO plasmid by Etest method. The assay is classed as functional.
Assay [11] has as its system Acinetobacter baumannii. The experiment in a line: Antimicrobial activity against Acinetobacter baumannii KI by Etest method. The assay is classed as functional.
Assay [12] has as its system Escherichia coli. The assay can be described thus: Antimicrobial activity against Escherichia coli TOP10 harboring pADC-11 plasmid by Etest method. The assay is classed as functional.
Assay [13] deals with Escherichia coli. The assay can be described thus: Antimicrobial activity against Escherichia coli TOP10 harboring pADC-33 plasmid carrying entire blaAmpC gene with alanine residue deletion at 215 position and R210P substitution by Etest method. The assay is classed as functional.
Assay [14] relates to Acinetobacter baumannii. The experiment in a line: Ratio of Kcat to Km for Acinetobacter baumannii ADC-33 beta-lactamase to Kcat to Km for Acinetobacter baumannii ADC-11 beta-lactamase.
Assay [15] concerns Escherichia coli. The experiment in a line: Antimicrobial activity against Escherichia coli TOP10 harboring pADC-50 plasmid by Etest method in presence of clavulanic acid. The assay is classed as functional.
Assay [16] has as its system Acinetobacter baumannii. The experiment in a line: Antimicrobial activity against Acinetobacter baumannii AYE expressing VEB-1 gene by Etest method in presence of clavulanic acid. The assay is classed as functional.
Assay [17] deals with Escherichia coli. The assay can be described thus: Antimicrobial activity against Escherichia coli TOP10 harboring pTOPO plasmid by Etest method in presence of clavulanic acid. The assay is classed as functional.
In assay [18] the test system is Acinetobacter baumannii. The experiment in a line: Antimicrobial activity against Acinetobacter baumannii KI by Etest method in presence of clavulanic acid. The assay is classed as functional.
In assay [19] the test system is Escherichia coli. The assay can be described thus: Antimicrobial activity against Escherichia coli TOP10 harboring pADC-33 plasmid carrying entire blaAmpC gene by Etest method in presence of clavulanic acid. The assay is classed as functional.
Assay [20] concerns Acinetobacter baumannii. The assay can be described thus: Antimicrobial activity against Acinetobacter baumannii CIP70.10 by Etest method in presence of clavulanic acid. The assay is classed as functional.
The test system of assay [21] is Escherichia coli. The experiment in a line: Antimicrobial activity against Escherichia coli TOP10 harboring pADC-33 plasmid carrying entire blaAmpC gene with alanine residue deletion at 215 position by Etest method in presence of clavulanic acid. The assay is classed as functional.
Assay [22] concerns Escherichia coli. The assay can be described thus: Antimicrobial activity against Escherichia coli TOP10 harboring pADC-11 plasmid carrying entire blaAmpC gene by Etest method in presence of clavulanic acid. The assay is classed as functional.
Assay [23] has as its system Escherichia coli. The experiment in a line: Antimicrobial activity against Escherichia coli TOP10 harboring pADC-11 plasmid carrying entire blaAmpC gene with alanine residue deletion at 215 position and R210P substitution by Etest method in presence of clavulanic acid. The assay is classed as functional.
For assay [24], the system named is Escherichia coli. The experiment in a line: Antimicrobial activity against Escherichia coli TOP10 harboring pADC-11 plasmid by Etest method in presence of clavulanic acid. The assay is classed as functional.
Assay [25] concerns Escherichia coli. The experiment in a line: Antimicrobial activity against Escherichia coli TOP10 harboring pADC-33 plasmid carrying entire blaAmpC gene with alanine residue deletion at 215 position and R210P substitution by Etest method in presence of clavulanic acid. The assay is classed as functional.
Assay [26] relates to Escherichia coli. The experiment in a line: Antimicrobial activity against Escherichia coli TOP10 harboring pADC-33 plasmid by Etest method in presence of clavulanic acid. The assay is classed as functional.
Assay [27] has as its system Escherichia coli. The experiment in a line: Antimicrobial activity against Escherichia coli TOP10 harboring pADC-11 plasmid carrying entire blaAmpC gene with alanine residue insertion at 215 position by Etest method in presence of clavulanic acid. The assay is classed as functional.
Assay [28] relates to Acinetobacter baumannii. The experiment in a line: Antimicrobial activity against Acinetobacter baumannii beta-lactamase by Etest method. The assay is classed as functional.
In assay [29] the test system is Acinetobacter baumannii. The assay can be described thus: Antimicrobial activity against Acinetobacter baumannii expressing ESAC beta-lactamase by Etest method. The assay is classed as functional.
In another assay the target is ADC-11 (Acinetobacter baumannii, UniProt D6NSM8). The assay can be described thus: Activity of Acinetobacter baumannii ADC-11 beta-lactamase.
A further assay concerns the target Beta-lactamase ADC-33 (Acinetobacter baumannii, UniProt B2ZTR6). The assay can be described thus: Activity of Acinetobacter baumannii ADC-33 beta-lactamase.
Assay [30] deals with Acinetobacter baumannii. The experiment in a line: Ratio of Kcat to Ki for Acinetobacter baumannii ADC-33 beta-lactamase to Kcat to Ki for Acinetobacter baumannii ADC-11 beta-lactamase.

With `C[C@@H](O)[C@H]1C(=O)N2C(C(=O)O)=C(S[C@@H]3CN[C@H](C(=O)N(C)C)C3)[C@H](C)[C@H]12` [MEROPENEM], the MIC in the assay on Escherichia coli [1] was found to be 0.032 µg/mL (≈ 0.0834 µM); against Escherichia coli [2] it was 0.032 µg/mL (≈ 0.0834 µM); in the assay with Escherichia coli [3], 0.023 µg/mL (≈ 0.06 µM); with Escherichia coli [4], 0.032 µg/mL (≈ 0.0834 µM); with Escherichia coli [5], 0.032 µg/mL (≈ 0.0834 µM); against Escherichia coli [6], 0.032 µg/mL (≈ 0.0834 µM). The MIC with Acinetobacter baumannii [7] came to 1 µg/mL (≈ 2.61 µM); in the assay on Acinetobacter baumannii [8], 0.25 µg/mL (≈ 0.652 µM); against Escherichia coli [9], 0.023 µg/mL (≈ 0.06 µM); in the assay on Escherichia coli [10], 0.023 µg/mL (≈ 0.06 µM); against Acinetobacter baumannii [11] it was 2 µg/mL (≈ 5.22 µM); in the assay with Escherichia coli [12] it was 0.023 µg/mL (≈ 0.06 µM). In the assay with Escherichia coli [13], this compound showed an MIC of 0.032 µg/mL (≈ 0.0834 µM).
For `CC(=O)OCC1=C(C(=O)O)N2C(=O)[C@@H](NC(=O)Cc3cccs3)[C@H]2SC1`, the kcat/Km with Acinetobacter baumannii [14] was found to be 500000 M⁻¹ s⁻¹.
Regarding `CO/N=C(\C(=O)N[C@@H]1C(=O)N2C(C(=O)O)=C(COC(N)=O)CS[C@H]12)c1ccco1` [CEFUROXIME], the MIC against Escherichia coli [1] is > 256 µg/mL; against Escherichia coli [2], > 256 µg/mL; against Escherichia coli [3] it was 64 µg/mL (≈ 151 µM); in the assay on Escherichia coli [4], > 256 µg/mL; in the assay on Escherichia coli [5], > 256 µg/mL; against Escherichia coli [6], > 256 µg/mL. Further, the MIC against Acinetobacter baumannii [7] is > 256 µg/mL; with Acinetobacter baumannii [8] it was 32 µg/mL (≈ 75.4 µM); in the assay with Escherichia coli [9] it was > 256 µg/mL; in the assay with Escherichia coli [10], 2 µg/mL (≈ 4.71 µM); in the assay on Acinetobacter baumannii [11], > 256 µg/mL; against Escherichia coli [12], 128 µg/mL (≈ 302 µM). Also, the MIC in the assay on Escherichia coli [13] was > 256 µg/mL.
In the case of `CC1(C)S[C@@H]2[C@H](NC(=O)[C@H](N)c3ccc(O)cc3)C(=O)N2[C@H]1C(=O)O` [AMOXICILLIN], the MIC was > 256 µg/mL in the assay with Escherichia coli [1]; 256 µg/mL in the assay with Escherichia coli [15]; 128 µg/mL in the assay on Acinetobacter baumannii [16]; 2 µg/mL with Escherichia coli [17]; 64 µg/mL in the assay on Acinetobacter baumannii [18]; > 256 µg/mL against Escherichia coli [2]. Further, the minimal inhibitory concentration (MIC) was > 256 µg/mL in the assay with Escherichia coli [19]; 256 µg/mL (≈ 701 µM) in the assay with Escherichia coli [3]; > 256 µg/mL in the assay with Escherichia coli [4]; > 256 µg/mL with Escherichia coli [5]; > 256 µg/mL against Escherichia coli [6]; > 256 µg/mL against Acinetobacter baumannii [7]. The MIC in the assay on Acinetobacter baumannii [20] is 16 µg/mL; against Acinetobacter baumannii [8], 32 µg/mL (≈ 87.6 µM); with Escherichia coli [21] it was > 256 µg/mL; in the assay with Escherichia coli [22], > 256 µg/mL; in the assay on Escherichia coli [9], > 256 µg/mL; with Escherichia coli [23] it was 256 µg/mL. Further, the MIC against Escherichia coli [10] is 2 µg/mL (≈ 5.47 µM); in the assay on Acinetobacter baumannii [11], > 256 µg/mL; in the assay on Escherichia coli [24] it was 256 µg/mL; in the assay on Escherichia coli [25], 256 µg/mL; in the assay on Escherichia coli [12], > 256 µg/mL; against Escherichia coli [13], > 256 µg/mL. For the same compound, the MIC with Escherichia coli [26] and with Escherichia coli [27] was > 256 µg/mL throughout.
On to `CO/N=C(\C(=O)N[C@@H]1C(=O)N2C(C(=O)[O-])=C(C[N+]3(C)CCCC3)CS[C@H]12)c1csc(N)n1`, for which the MIC against Escherichia coli [1] amounted to 0.5 µg/mL (≈ 1.04 µM); against Acinetobacter baumannii [28] it was 2 µg/mL (≈ 4.16 µM); against Escherichia coli [2], 1 µg/mL (≈ 2.08 µM); with Escherichia coli [3], 0.032 µg/mL (≈ 0.0666 µM); in the assay on Escherichia coli [4], 0.125 µg/mL (≈ 0.26 µM); in the assay on Escherichia coli [5], 0.25 µg/mL (≈ 0.52 µM). Moreover, the MIC with Acinetobacter baumannii [7] is > 256 µg/mL; against Acinetobacter baumannii [29], 32 µg/mL (≈ 66.6 µM); in the assay on Acinetobacter baumannii [8] it was 1 µg/mL (≈ 2.08 µM); against Escherichia coli [9], 0.125 µg/mL (≈ 0.26 µM); in the assay on Acinetobacter baumannii [11], 256 µg/mL (≈ 533 µM); against Escherichia coli [12], 0.032 µg/mL (≈ 0.0666 µM). Besides, the MIC against Escherichia coli [13] stood at 0.125 µg/mL (≈ 0.26 µM). Also, in the assay on Acinetobacter baumannii [14], the kcat/Km was determined as 2e+07 M⁻¹ s⁻¹.
`C[C@H]1[C@H](NC(=O)/C(=N\OC(C)(C)C(=O)O)c2csc(N)n2)C(=O)N1S(=O)(=O)O` [AZTREONAM]: the MIC against Escherichia coli [1] was 16 µg/mL (≈ 36.7 µM); against Acinetobacter baumannii [28], 12 µg/mL (≈ 27.6 µM); with Escherichia coli [2], 256 µg/mL (≈ 588 µM); against Escherichia coli [4], 2 µg/mL (≈ 4.59 µM); with Escherichia coli [5], 6 µg/mL (≈ 13.8 µM); with Escherichia coli [6], 256 µg/mL (≈ 588 µM). In addition, the MIC with Acinetobacter baumannii [7] was > 256 µg/mL; in the assay with Acinetobacter baumannii [29], > 256 µg/mL; against Acinetobacter baumannii [8], 8 µg/mL (≈ 18.4 µM); in the assay with Escherichia coli [9] it was 8 µg/mL (≈ 18.4 µM); in the assay with Acinetobacter baumannii [11], 256 µg/mL (≈ 588 µM); in the assay on Escherichia coli [12], 0.094 µg/mL (≈ 0.216 µM). Also, the MIC in the assay with Escherichia coli [13] is 2 µg/mL (≈ 4.59 µM). Further, the results for the Ki at ADC-11 and at Beta-lactamase ADC-33 were 3000 nM and 7 nM, respectively.
`CO[C@@]1(NC(=O)Cc2cccs2)C(=O)N2C(C(=O)O)=C(COC(N)=O)CS[C@@H]21` [CEFOXITIN]: the values for the Ki at ADC-11 and at Beta-lactamase ADC-33 were 500 nM and 100 nM, respectively. For the same compound, in the assay on Acinetobacter baumannii [30], the kcat/Km worked out at 1e+06 M⁻¹ s⁻¹.
